This passage reports AC50, EC50 and IC50 results from ChEMBL document CHEMBL1201862, “PubChem BioAssay data set” (2004).

Molecules are shown by their SMILES. Activity calls are given as the source filed them.

In assay [1] the target is T1, Cytochrome P450 1A2 (Homo sapiens, UniProt P05177).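 Note: PubChem cytochrome P450 panel assay, CYP1A2 panel member.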
T1 sequence (P05177 whole entry): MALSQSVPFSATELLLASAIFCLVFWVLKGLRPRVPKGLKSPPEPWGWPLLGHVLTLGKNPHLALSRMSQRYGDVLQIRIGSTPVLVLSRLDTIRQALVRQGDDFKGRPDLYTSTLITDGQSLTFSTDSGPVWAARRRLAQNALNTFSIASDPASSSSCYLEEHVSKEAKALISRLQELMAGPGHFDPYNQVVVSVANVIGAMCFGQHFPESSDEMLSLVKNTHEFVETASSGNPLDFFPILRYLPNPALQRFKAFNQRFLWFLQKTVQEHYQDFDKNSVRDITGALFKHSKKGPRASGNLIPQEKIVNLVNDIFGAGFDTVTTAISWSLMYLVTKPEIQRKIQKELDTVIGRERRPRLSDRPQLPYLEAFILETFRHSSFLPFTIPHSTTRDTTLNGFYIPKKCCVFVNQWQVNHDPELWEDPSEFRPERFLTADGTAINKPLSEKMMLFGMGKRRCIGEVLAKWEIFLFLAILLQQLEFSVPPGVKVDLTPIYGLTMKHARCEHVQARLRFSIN

For assay [2], the target named is T2, Corticotropin-releasing factor receptor 2/Corticotropin-releasing factor-binding protein (Homo sapiens, UniProt P24387+Q13324).
T2 sequence (Q13324 whole entry): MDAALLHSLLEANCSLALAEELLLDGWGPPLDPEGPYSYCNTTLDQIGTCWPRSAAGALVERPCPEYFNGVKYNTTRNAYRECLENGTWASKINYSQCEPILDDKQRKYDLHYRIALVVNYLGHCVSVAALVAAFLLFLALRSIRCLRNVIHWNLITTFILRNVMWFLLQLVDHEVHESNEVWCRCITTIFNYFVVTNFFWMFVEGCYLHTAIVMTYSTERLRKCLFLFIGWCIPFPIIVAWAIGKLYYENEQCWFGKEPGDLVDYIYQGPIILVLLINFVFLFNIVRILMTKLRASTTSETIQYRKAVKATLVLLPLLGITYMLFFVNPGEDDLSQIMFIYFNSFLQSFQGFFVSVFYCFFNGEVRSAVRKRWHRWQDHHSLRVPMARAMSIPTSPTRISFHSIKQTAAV
T2 sequence (P24387 whole entry): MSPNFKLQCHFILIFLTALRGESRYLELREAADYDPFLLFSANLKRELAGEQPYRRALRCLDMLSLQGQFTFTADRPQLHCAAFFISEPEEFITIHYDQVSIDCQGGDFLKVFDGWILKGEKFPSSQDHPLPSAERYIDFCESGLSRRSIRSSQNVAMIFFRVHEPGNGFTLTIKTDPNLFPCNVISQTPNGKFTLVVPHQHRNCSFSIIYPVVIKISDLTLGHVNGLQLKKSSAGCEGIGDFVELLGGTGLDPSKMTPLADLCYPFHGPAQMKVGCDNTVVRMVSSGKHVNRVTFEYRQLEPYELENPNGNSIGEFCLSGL
Kind of assay: activators of CRF receptor 2 with binding protein – uHTS hits, confirmation (AID 602473). The conditions noted are these: read-out: EC50_Mean. In kind it is functional.

The target in assay [3] is T3, Protein skinhead-1 (Caenorhabditis elegans, UniProt P34707).
T3 sequence (P34707 whole entry): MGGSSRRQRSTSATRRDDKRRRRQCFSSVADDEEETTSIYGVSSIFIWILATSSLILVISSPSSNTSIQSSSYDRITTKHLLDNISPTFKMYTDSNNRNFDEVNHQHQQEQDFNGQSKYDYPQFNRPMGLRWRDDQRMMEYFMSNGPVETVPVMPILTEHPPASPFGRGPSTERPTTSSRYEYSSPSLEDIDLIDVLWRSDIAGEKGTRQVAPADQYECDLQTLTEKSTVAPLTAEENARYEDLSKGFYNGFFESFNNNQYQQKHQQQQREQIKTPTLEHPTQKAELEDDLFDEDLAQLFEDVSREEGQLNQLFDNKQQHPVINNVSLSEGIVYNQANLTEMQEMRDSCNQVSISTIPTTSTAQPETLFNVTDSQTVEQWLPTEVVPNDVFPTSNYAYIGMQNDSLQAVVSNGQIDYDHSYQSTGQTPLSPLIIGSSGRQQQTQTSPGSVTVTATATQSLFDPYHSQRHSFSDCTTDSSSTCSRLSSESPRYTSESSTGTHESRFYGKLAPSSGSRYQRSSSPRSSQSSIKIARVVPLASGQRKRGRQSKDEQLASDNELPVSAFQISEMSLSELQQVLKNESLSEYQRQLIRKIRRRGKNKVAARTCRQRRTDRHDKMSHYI
In kind it is functional.

Assay [4] concerns the target T2, Corticotropin-releasing factor receptor 2/Corticotropin-releasing factor-binding protein. Kind of assay: Dose Response confirmation of uHTS hits for small molecule antagonists of the CRF-binding protein and CRF-R2 receptor complex. The conditions noted are these: read-out: IC50_Mean. Format: functional.
In assay [5] the target is T4, Heat shock factor protein 1 (Mus musculus, UniProt P38532).
T4 sequence (P38532 whole entry): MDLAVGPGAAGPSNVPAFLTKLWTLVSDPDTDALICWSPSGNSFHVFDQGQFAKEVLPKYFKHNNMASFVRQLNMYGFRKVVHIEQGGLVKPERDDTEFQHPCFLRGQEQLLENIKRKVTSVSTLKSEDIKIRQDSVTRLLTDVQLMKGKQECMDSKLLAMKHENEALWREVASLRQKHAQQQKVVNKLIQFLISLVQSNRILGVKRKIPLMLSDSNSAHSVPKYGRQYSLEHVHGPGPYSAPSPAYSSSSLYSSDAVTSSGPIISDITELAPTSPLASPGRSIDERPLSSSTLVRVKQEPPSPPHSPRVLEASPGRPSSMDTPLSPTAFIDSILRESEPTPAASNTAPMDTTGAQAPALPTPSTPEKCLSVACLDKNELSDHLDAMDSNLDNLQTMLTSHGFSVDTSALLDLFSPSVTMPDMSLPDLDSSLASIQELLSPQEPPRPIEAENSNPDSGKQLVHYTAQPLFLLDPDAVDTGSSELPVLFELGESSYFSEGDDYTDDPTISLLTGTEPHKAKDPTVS
Kind of assay: enhancement of HSF1-driven luciferase signal – cell-based, NIH3T3, luminescence, dose retest, confirmation (AID 435004).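 Note: stress induced by proteasome inhibitor MG132 added 30 min after compound; luciferase reporter driven by HSF1 response element in NIH3T3 cells; actives raise luminescence as potentiators of the MG132 stress response.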 Format: functional.

The target in assay [6] is Cytochrome P450 2C9 (Homo sapiens, UniProt P11712).
Cytochrome P450 2C9, sequence (P11712 whole entry): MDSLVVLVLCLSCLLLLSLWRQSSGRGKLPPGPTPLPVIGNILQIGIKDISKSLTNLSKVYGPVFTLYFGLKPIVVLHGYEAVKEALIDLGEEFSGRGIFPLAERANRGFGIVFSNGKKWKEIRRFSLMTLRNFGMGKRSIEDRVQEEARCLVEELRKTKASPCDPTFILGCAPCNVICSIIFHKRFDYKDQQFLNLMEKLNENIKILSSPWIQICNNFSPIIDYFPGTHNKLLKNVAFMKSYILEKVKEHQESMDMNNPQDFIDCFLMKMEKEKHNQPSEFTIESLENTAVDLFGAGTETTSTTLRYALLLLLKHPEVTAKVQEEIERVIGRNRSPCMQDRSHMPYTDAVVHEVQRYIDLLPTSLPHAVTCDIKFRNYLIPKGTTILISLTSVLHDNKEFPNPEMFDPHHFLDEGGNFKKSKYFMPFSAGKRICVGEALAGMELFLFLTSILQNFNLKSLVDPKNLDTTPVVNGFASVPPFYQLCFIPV
The target in assay [7] is Cytochrome P450 3A4 (Homo sapiens, UniProt P08684).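 Note: CYP3A4 tested as one member of a cytochrome P450 panel screen.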
Cytochrome P450 3A4, sequence (P08684 whole entry): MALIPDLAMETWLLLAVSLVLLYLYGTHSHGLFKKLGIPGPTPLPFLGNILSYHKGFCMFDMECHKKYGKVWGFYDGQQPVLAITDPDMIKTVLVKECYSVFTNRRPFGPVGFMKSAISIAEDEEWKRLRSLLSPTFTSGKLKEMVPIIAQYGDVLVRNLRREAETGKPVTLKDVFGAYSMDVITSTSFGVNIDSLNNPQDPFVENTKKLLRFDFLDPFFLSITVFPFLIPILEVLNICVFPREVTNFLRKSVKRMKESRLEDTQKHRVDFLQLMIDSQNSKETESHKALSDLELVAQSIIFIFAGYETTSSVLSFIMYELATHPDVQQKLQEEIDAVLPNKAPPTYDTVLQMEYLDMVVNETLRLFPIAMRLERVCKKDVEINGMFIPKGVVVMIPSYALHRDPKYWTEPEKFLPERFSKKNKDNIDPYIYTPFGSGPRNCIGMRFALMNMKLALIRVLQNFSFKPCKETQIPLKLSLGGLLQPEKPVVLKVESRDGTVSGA
For assay [8], the system named is H4. The assay can be described thus: Luminescence Cell-Based Dose Response HTS to Identify Activators of 5'UTR Stem-Loop Driven Prion Protein mRNA Translation in H4 Neuroglioblastoma Cells. [Related pubchem assays: 1829 (Project Summary), 1814 (Primary HTS)]. In kind it is functional. The conditions noted are these: Homo sapiens.
A short description of assay [9]: Luminescence Cell-Based Dose Response HTS to Identify Activators of Luciferase Translation or Activity in H4 […] Cells. [Related pubchem assays: 1829 (Project Summary), 1814 (Primary HTS)]. In kind it is functional.
Assay [10] can be described thus: Trypanosoma cruzi growth suppression in host cells – NIH3T3 host cells, beta-gal luminescence, confirmation (AID 2044).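 Note: intracellular parasites grown in NIH/3T3 mouse fibroblasts as host cells; luminescent beta-galactosidase reporter signal from transgenic T. cruzi replicating inside host cells; inhibitors lower the luminescence signal.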 In kind it is functional, cell-based.
The nature of assay [11]: NIH3T3 cell viability loss – ATP luminescence, mouse fibroblasts, counter-screen, dose response (AID 2010).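 Note: cells exposed to compound for about 90 hours before reading.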 Format: functional, cell-based.

As to `CCCNC(=N)NCCC[C@H](N)C(=O)O`, the AC50 (usually the midpoint of the concentration-response curve, whichever way the signal moves) in [1] is 31.6 µM (inconclusive).

With `CCc1nc(NCCC(C)C)c(C#N)c2c1CCCC2`, the EC50 in assay [2] was > 53 µM (inactive). Besides, the results for the IC50 in assay [3] and in assay [4] were > 100 µM (inactive) and > 47.1 µM (inactive), respectively. For the compound `Clc1ccc(-c2nnc(-c3ccccc3)o2)cn1`, the IC50 in [3] is 39.8 µM (active). Turning to `COc1ccc(/C=C/C(=O)N(C(C)C)C(C)C)cc1Br`, the EC50 in [5] is 200 µM (active). For `O=C1/C(=C\c2cccs2)SC(=S)N1C1CCS(=O)(=O)C1` (stereo not drawn), the IC50 in assay [3] is > 100 µM (inactive). For `CCOC(=O)c1c(NC(=O)Cn2nc([N+](=O)[O-])c(Br)c2C)sc2c1CCC(C)C2` (stereo not drawn), the figures for the concentration at half-maximal activity (AC50) in assay [1] and in assay [6] were 2.82 µM (inconclusive) and 3.55 µM (inconclusive), respectively. As to `COc1ccc(C(=O)N2CCC3(CC2)CN(C(=O)Nc2ccccc2)C3)cc1`, the AC50 in assay [1] was 25.1 µM (inconclusive). As for `COc1ccc(-c2nc3cnc(N4CCNCC4)nc3n(C)c2=O)cc1`, the AC50 in assay [1] is 12.6 µM (inconclusive); in assay [7], 31.6 µM (inconclusive). Regarding `O=C(C1CCN(S(=O)(=O)c2cccc3nsnc23)CC1)N1CCCc2ccccc21`, the AC50 in assay [1] was 10 µM (inconclusive); in assay [6] it was 39.8 µM (inconclusive). Turning to `COc1cccc(-c2ccc3ncnc(N4CCNCC4)c3c2)c1`, the AC50 in [7] was 10 µM (inconclusive).

`CN(C)c1ccc(C(CNC(=O)c2ccccc2)c2c[nH]c3ccccc23)cc1` (stereo not drawn): in assay [5], the EC50 is > 260 µM (inactive). Regarding `CC(NC(=O)/C=C/c1ccco1)c1nc2ccccc2n1Cc1cccc(Cl)c1` (stereo not drawn), in assay [5], the EC50 was > 260 µM (inactive).

Take `c1ccc(N2CCN(c3cnc4ccccc4n3)CC2)cc1`: the IC50 in assay [3] was 76.2 µM (inactive).

For `CC(=O)NCCNc1nc(-c2ccccc2Cl)nc2ccccc12`, the AC50 in [7] was 5.01 µM (inconclusive). With `CCN(CC)c1ccc(N2C(=O)/C(=C/c3cccnc3)SC2=S)cc1`, the AC50 in assay [1] was 6.31 µM (inconclusive). For `CC(=O)N1CSCC1C(=O)NNS(=O)(=O)c1cccc(C(F)(F)F)c1` (stereo not drawn), the EC50 in assay [5] is > 260 µM (inactive).

Turning to `Cc1ccccc1OCc1nnc2c3cnn(C)c3ncn12`, the results for the EC50 in [8] and in assay [9] were 38.8 µM (active) and 16.8 µM (active), respectively. Regarding `CC(=O)N1CCC[C@@]2(CCN(Cc3nccs3)C2)C1`, the AC50 in [7] was 31.6 µM (inconclusive).

`COC(=O)c1[nH]c2ccccc2c1NC(=O)C(C)N1CCOCC1` (stereo not drawn): the IC50 in assay [3] is > 100 µM (inactive). For `COc1ccc(Nc2oc(-c3ccc(F)cc3)nc2C#N)cc1`, the EC50 in assay [8] was > 120 µM (not active); in [9] it was 15.1 µM (active).

For `CSc1ccc(S(=O)(=O)N2CCC(C(=O)Nc3ccccc3C(F)(F)F)CC2)cc1`, the IC50 in assay [3] was > 100 µM (inactive). `CCn1cc(C(=O)OCC(=O)NCc2ccc3c(c2)OCO3)c(=O)c2ccc(C)nc21`: the IC50 in [3] was > 100 µM (inactive). The same measure, in the same setting: in the case of `Cc1cc(C)n(-c2nc3ccccc3n3cnnc23)n1` it was > 100 µM (inactive). Turning to `O=C(O)C[C@@H](C(=O)O)c1ccccc1[N+](=O)[O-]`, the AC50 in assay [1] was 0.794 µM (inconclusive).

For `Fc1ccc(-c2cnn3c(-c4ccncc4)ccnc23)cc1`, the IC50 in assay [3] is > 100 µM (inactive). `COc1cc(-c2cn(S(=O)(=O)c3cccc4nsnc34)nc2N)cc(OC)c1OC`: in assay [5], the EC50 is > 260 µM (inactive). On to `Cc1csc(NC(=O)CNS(=O)(=O)c2cccs2)n1`, for which, in assay [7], the AC50 was 17.8 µM (inconclusive). Consider `COc1cccc(CNCc2ccc(SC)cc2)c1OC`, for which, in [7], the AC50 was 11.2 µM (inconclusive). Turning to `COc1ccc(C(=O)N2CCC[C@@]3(CCN(c4cccc(-c5ccccc5)c4)C3)C2)cc1`, the AC50 in assay [1] was 12.6 µM (inconclusive). As to `O=C(Nc1ccccc1C(=O)N1CCCC1)c1ncoc1-c1cccc(Cl)c1`, in assay [5], the EC50 is > 260 µM (inactive).

As for `O=C(CN1CCN(S(=O)(=O)N2CCCCC2)CC1)Nc1cc(Cl)cc(Cl)c1`, the IC50 in assay [3] is > 100 µM (inactive). On to `N#CC(c1ccccn1)(c1ncc(C(F)(F)F)cc1Cl)N1CCOCC1` (stereo not drawn), for which the half-maximal activity concentration (AC50) in assay [7] was 35.5 µM (inconclusive). On to `COc1ccc(NC(=O)CSc2nnc(C3CC3)n2N)cc1`, for which the AC50 in assay [1] is 39.8 µM (inconclusive); in assay [6], 28.2 µM (inconclusive).

In the case of `N#C/C(=C(\O)C(F)(F)F)c1nnc2n1CCCCC2`, the EC50 in [5] is > 260 µM (inactive).

As for `COc1cc(/C=N/NC(=O)c2ccncc2)ccc1OC(=O)c1ccc([N+](=O)[O-])cc1`, the AC50 in assay [7] was 0.891 µM (inconclusive); in assay [6], 3.55 µM (inconclusive). In the case of `CO/C(O)=C1/C(C)=NC2=C(C(=O)CC(C)(C)C2)C1c1cn(Cc2ccc(Br)cc2)nc1-c1ccccc1` (stereo not drawn), the EC50 in assay [5] was > 260 µM (inactive).

As for `COc1ccc(/C(C)=N/NC(=S)NCc2ccco2)cc1`, the EC50 in [5] is > 260 µM (inactive). On to `CCOC(=O)C1=C(Nc2ccccc2)CC(C)(O)C(C(=O)OCC)C1c1ccc(Cl)cc1` (stereo not drawn), for which, in [3], the IC50 was > 100 µM (inactive). Consider `CSc1ccc2c(c1)N(CCCN(C)C)c1ccccc1S2`, for which the AC50 in assay [1] is 1.26 µM (inconclusive). For `C[C@@H](N)Cn1ccc2cc(F)c(Cl)cc21`, in assay [7], the half-maximal activity concentration (AC50) is 39.8 µM (inconclusive). Turning to `N#C/C(=C\c1ccc(Sc2ccccc2)o1)c1nc2ccccc2[nH]1`, the EC50 in [10] is 1.42 µM (active); in assay [8] it was 23 µM (active); in [11] it was > 60 µM (inconclusive); in assay [9], 0.561 µM (active).
